In patent publication US9833497B2, “Human originated EGF domain proteins and use of the same” (CHENGDU SOURCEBIO LIMITED-LIABILITY COMPANY, priority 2013, dated 2017):

Assays:
Assay type in all cases: cell-based
E. coli DH5α = experiment: Antibacterial activity: MIC and growth curve against E. coli DH5α in 96-well plate; conditions: minimal inhibitory concentration against E. coli DH5α; 96-well plate, 5×10^5 CFU/mL, 37° C., judged after 8 h
Procedure, shortened: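 Log-phase DH5α (OD600 about 0.5, 37° C, 185 rpm in LB) was pelleted, resuspended in fresh LB and seeded at 5×10^5 CFU/mL with recombinant protein at 50, 25 and 12.5 μg/mL (two-fold series), in triplicate. Plates were shaken at 175 rpm, 37° C, and OD600 was read every 30 min. MIC was the lowest concentration with no growth.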

E. coli BL21 = experiment: MIC against Gram-negative bacteria: E. coli BL21; conditions: 5×10^5 CFU/mL; for MIC E. coli BL21: two-fold serial dilution
Procedure, shortened: (§1)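 Bacteria grown in LB at 37° C to McFarland 0.5, resuspended and seeded at 5×10^5 CFU/mL in 96-well plates. Purified human EGF-domain proteins two-fold serially diluted, triplicate wells; cultured at 37° C, shaking 175 rpm. MIC = lowest protein concentration with no growth.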

Pseudomonas aeruginosa = experiment: MIC against Gram-negative bacteria: Pseudomonas aeruginosa; conditions: 5×10^5 CFU/mL; for MIC P. aeruginosa: two-fold serial dilution
Procedure, shortened: as §1

Klebsiella pneumonia = experiment: MIC against Gram-negative bacteria: Klebsiella pneumonia; conditions: 5×10^5 CFU/mL; for MIC K. pneumonia: two-fold serial dilution
Procedure, shortened: as §1

Enterobacter cloacae = experiment: MIC against Gram-negative bacteria: Enterobacter cloacae; conditions: 5×10^5 CFU/mL; for MIC E. cloacae: two-fold serial dilution
Procedure, shortened: as §1

Aeromonas hydrophila = experiment: MIC against Gram-negative bacteria: Aeromonas hydrophila; conditions: 5×10^5 CFU/mL; for MIC A. hydrophila: two-fold serial dilution
Procedure, shortened: as §1

Citrobacter diversus = experiment: MIC against Gram-negative bacteria: Citrobacter diversus; conditions: 5×10^5 CFU/mL; for MIC C. diversus: two-fold serial dilution
Procedure, shortened: as §1

Moraxella catarrhalis = experiment: MIC against Gram-negative bacteria: Moraxella catarrhalis; conditions: 5×10^5 CFU/mL; for MIC M. catarrhalis: two-fold serial dilution
Procedure, shortened: as §1

Proteus mirabilis = experiment: MIC against Gram-negative bacteria: Proteus mirabilis; conditions: 5×10^5 CFU/mL; for MIC P. mirabilis: two-fold serial dilution
Procedure, shortened: as §1

Proteus vulgaris = experiment: MIC against Gram-negative bacteria: Proteus vulgaris; conditions: 5×10^5 CFU/mL; for MIC P. vulgaris: two-fold serial dilution
Procedure, shortened: as §1

Serratia marcescens = experiment: MIC against Gram-negative bacteria: Serratia marcescens; conditions: 5×10^5 CFU/mL; for MIC S. marcescens: two-fold serial dilution
Procedure, shortened: as §1

[1] = P. aeruginosa, 10 h cultivation at 37° C.
[2] = K. pneumonia, 10 h cultivation at 37° C.
[3] = E. cloacae, 10 h cultivation at 37° C.
[4] = A. hydrophila, 10 h cultivation at 37° C.
[5] = C. diversus, 10 h cultivation at 37° C.
[6] = M. catarrhalis, 10 h cultivation at 37° C.
[7] = P. mirabilis, 10 h cultivation at 37° C.
[8] = P. vulgaris, 10 h cultivation at 37° C.
[9] = S. marcescens, 10 h cultivation at 37° C.

Substance: PRT61 (KDECSKDNGGCQQDCVNTFGSYECQCRSGFVLHDNKHDCK; listed as Homo sapiens)
- MIC (E. coli DH5α): 12.5 µg/mL
- MIC (μg/mL) E. coli BL21 (E. coli BL21; 96-well plate, 37° C., 10 h): 50 µg/mL
- MIC (μg/mL) P. aeruginosa (Pseudomonas aeruginosa; Pseudomonas aeruginosa, 96-well plate, 37° C., 10 h): 12.5 µg/mL
- MIC (μg/mL) K. pneumonia (Klebsiella pneumonia; Klebsiella pneumonia, 96-well plate, 37° C., 10 h): 12.5 µg/mL
- MIC (μg/mL) E. cloacae (Enterobacter cloacae; Enterobacter cloacae, 96-well plate, 37° C., 10 h): 12.5 µg/mL
- MIC (μg/mL) A. hydrophila (Aeromonas hydrophila; Aeromonas hydrophila, 96-well plate, 37° C., 10 h): 12.5 µg/mL
- MIC (μg/mL) C. diversus (Citrobacter diversus; Citrobacter diversus, 96-well plate, 37° C., 10 h): 25 µg/mL
- MIC (μg/mL) M. catarrhalis (Moraxella catarrhalis; Moraxella catarrhalis, 96-well plate, 37° C., 10 h): 25 µg/mL
- MIC (μg/mL) P. mirabilis (Proteus mirabilis; Proteus mirabilis, 96-well plate, 37° C., 10 h): 25 µg/mL
- MIC (μg/mL) P. vulgaris (Proteus vulgaris; Proteus vulgaris, 96-well plate, 37° C., 10 h): 12.5 µg/mL
- MIC (μg/mL) S. marcescens (Serratia marcescens; Serratia marcescens, 96-well plate, 37° C., 10 h): 25 µg/mL

Substance: PRT753 (RKDVCKSTHHGCEHICVNNGNSYICKCSEGFVLAEDGRRCK; listed as Homo sapiens)
- MIC (E. coli DH5α): 25 µg/mL
- MIC (μg/mL) E. coli BL21 (E. coli BL21; 10 h cultivation at 37° C.): 50 µg/mL
- MIC (μg/mL) P. aeruginosa (Pseudomonas aeruginosa; [1]): 12.5 µg/mL
- MIC (μg/mL) K. pneumonia (Klebsiella pneumonia; [2]): 50 µg/mL
- MIC (μg/mL) E. cloacae (Enterobacter cloacae; [3]): 12.5 µg/mL
- MIC (μg/mL) A. hydrophila (Aeromonas hydrophila; [4]): 50 µg/mL
- MIC (μg/mL) C. diversus (Citrobacter diversus; [5]): 12.5 µg/mL
- MIC (μg/mL) M. catarrhalis (Moraxella catarrhalis; [6]): 50 µg/mL
- MIC (μg/mL) P. mirabilis (Proteus mirabilis; [7]): 12.5 µg/mL
- MIC (μg/mL) P. vulgaris (Proteus vulgaris; [8]): 25 µg/mL
- MIC (μg/mL) S. marcescens (Serratia marcescens; [9]): 50 µg/mL

Substance: PRT1088 (PVNPCCYYPCQHQGICVRFGLDRYQCDCTRTGYSGPNCT; listed as Homo sapiens)
- MIC (E. coli DH5α): 25 µg/mL
- MIC E. coli BL21 (E. coli BL21; 10 h cultivation at 37° C.): 50 µg/mL
- MIC P. aeruginosa (Pseudomonas aeruginosa; 10 h cultivation at 37° C.): 50 µg/mL
- MIC K. pneumonia (Klebsiella pneumonia; 10 h cultivation at 37° C.): 12.5 µg/mL
- MIC E. cloacae (Enterobacter cloacae; 10 h cultivation at 37° C.): 50 µg/mL
- MIC A. hydrophila (Aeromonas hydrophila; 10 h cultivation at 37° C.): 50 µg/mL
- MIC C. diversus (Citrobacter diversus; 10 h cultivation at 37° C.): 50 µg/mL
- MIC M. catarrhalis (Moraxella catarrhalis; 10 h cultivation at 37° C.): 25 µg/mL
- MIC P. mirabilis (Proteus mirabilis; 10 h cultivation at 37° C.): 12.5 µg/mL
- MIC P. vulgaris (Proteus vulgaris; 10 h cultivation at 37° C.): 25 µg/mL
- MIC S. marcescens (Serratia marcescens; 10 h cultivation at 37° C.): 50 µg/mL

Substance: PRT1114 (PSKECSLNVTCLDGSPCEGGSPAANCSCLEGLAGQRCQ; listed as Homo sapiens)
- MIC (E. coli DH5α): 25 µg/mL
- MIC E. coli BL21 (E. coli BL21; 10 h cultivation at 37° C.): 12.5 µg/mL
- MIC P. aeruginosa (Pseudomonas aeruginosa; 10 h cultivation at 37° C.): 25 µg/mL
- MIC K. pneumonia (Klebsiella pneumonia; 10 h cultivation at 37° C.): 50 µg/mL
- MIC E. cloacae (Enterobacter cloacae; 10 h cultivation at 37° C.): 25 µg/mL
- MIC A. hydrophila (Aeromonas hydrophila; 10 h cultivation at 37° C.): 25 µg/mL
- MIC C. diversus (Citrobacter diversus; 10 h cultivation at 37° C.): 12.5 µg/mL
- MIC M. catarrhalis (Moraxella catarrhalis; 10 h cultivation at 37° C.): 25 µg/mL
- MIC P. mirabilis (Proteus mirabilis; 10 h cultivation at 37° C.): 50 µg/mL
- MIC P. vulgaris (Proteus vulgaris; 10 h cultivation at 37° C.): 25 µg/mL
- MIC S. marcescens (Serratia marcescens; 10 h cultivation at 37° C.): 12.5 µg/mL

Substance: PRT534 (CKCHKAGTVSGTGECRQGDGDCHCKSHVGGDSCDTCEDGYFALEKSNYFGCQG; listed as Homo sapiens)
- MIC (E. coli DH5α): 50 µg/mL
- MIC against E. coli BL21 (E. coli BL21; 96-well plate, 37° C., 10 h): 12.5 µg/mL
- MIC against P. aeruginosa (Pseudomonas aeruginosa; 96-well plate, 37° C., 10 h): 50 µg/mL
- MIC against K. pneumonia (Klebsiella pneumonia; 96-well plate, 37° C., 10 h): 12.5 µg/mL
- MIC against E. cloacae (Enterobacter cloacae; 96-well plate, 37° C., 10 h): 50 µg/mL
- MIC against A. hydrophila (Aeromonas hydrophila; 96-well plate, 37° C., 10 h): 12.5 µg/mL
- MIC against C. diversus (Citrobacter diversus; 96-well plate, 37° C., 10 h): 50 µg/mL
- MIC against M. catarrhalis (Moraxella catarrhalis; 96-well plate, 37° C., 10 h): 12.5 µg/mL
- MIC against P. mirabilis (Proteus mirabilis; 96-well plate, 37° C., 10 h): 25 µg/mL
- MIC against P. vulgaris (Proteus vulgaris; 96-well plate, 37° C., 10 h): 50 µg/mL
- MIC against S. marcescens (Serratia marcescens; 96-well plate, 37° C., 10 h): 25 µg/mL

Substance: PRT590 (CDCNILGSRRDMPCDEESGRCLCLPNVVGPKCDQCAPYHWKLASGQGCEP; listed as Homo sapiens)
- MIC (E. coli DH5α): 50 µg/mL
- MIC against E. coli BL21 (E. coli BL21; 96-well plate, 37° C., 10 h): 25 µg/mL
- MIC against P. aeruginosa (Pseudomonas aeruginosa; 96-well plate, 37° C., 10 h): 12.5 µg/mL
- MIC against K. pneumonia (Klebsiella pneumonia; 96-well plate, 37° C., 10 h): 25 µg/mL
- MIC against E. cloacae (Enterobacter cloacae; 96-well plate, 37° C., 10 h): 50 µg/mL
- MIC against A. hydrophila (Aeromonas hydrophila; 96-well plate, 37° C., 10 h): 25 µg/mL
- MIC against C. diversus (Citrobacter diversus; 96-well plate, 37° C., 10 h): 12.5 µg/mL
- MIC against M. catarrhalis (Moraxella catarrhalis; 96-well plate, 37° C., 10 h): 25 µg/mL
- MIC against P. mirabilis (Proteus mirabilis; 96-well plate, 37° C., 10 h): 50 µg/mL
- MIC against P. vulgaris (Proteus vulgaris; 96-well plate, 37° C., 10 h): 25 µg/mL
- MIC against S. marcescens (Serratia marcescens; 96-well plate, 37° C., 10 h): 12.5 µg/mL

Substance: PRT783 (WGPNCSLPCYCKNGASCSPDDGICECAPGFRGTTCQ; listed as Homo sapiens)
- MIC (E. coli DH5α): 25 µg/mL
- MIC (μg/mL) E. coli BL21 (E. coli BL21; 10 h cultivation at 37° C.): 12.5 µg/mL
- MIC (μg/mL) P. aeruginosa (Pseudomonas aeruginosa; [1]): 50 µg/mL
- MIC (μg/mL) K. pneumonia (Klebsiella pneumonia; [2]): 12.5 µg/mL
- MIC (μg/mL) E. cloacae (Enterobacter cloacae; [3]): 25 µg/mL
- MIC (μg/mL) A. hydrophila (Aeromonas hydrophila; [4]): 50 µg/mL
- MIC (μg/mL) C. diversus (Citrobacter diversus; [5]): 25 µg/mL
- MIC (μg/mL) M. catarrhalis (Moraxella catarrhalis; [6]): 12.5 µg/mL
- MIC (μg/mL) P. mirabilis (Proteus mirabilis; [7]): 25 µg/mL
- MIC (μg/mL) P. vulgaris (Proteus vulgaris; [8]): 50 µg/mL
- MIC (μg/mL) S. marcescens (Serratia marcescens; [9]): 12.5 µg/mL
